Results taken from PubChem BioAssay (NCI).
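Where inhibition never reached the appropriate level, the endpoint shown equals the highest concentration tested. Otherwise, values were interpolated linearly from a five-concentration, 48-hour dose response in 96-well plates. TGI: total growth inhibition.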

Columns and labels:
Assay in all cases: growth of human tumour cells (NCI), 48 h
NCI-H460 lung = test system: NCI-H460 lung
786-0 renal = test system: 786-0 renal
T-47D breast = test system: T-47D breast
A498 renal = test system: A498 renal
DU-145 prostate = test system: DU-145 prostate
NCI-H226 lung = test system: NCI-H226 lung
HT29 colon = test system: HT29 colon
OVCAR-5 ovarian = test system: OVCAR-5 ovarian
HOP-62 NSCLC = test system: HOP-62 NSCLC
LOX IMVI melanoma = test system: LOX IMVI melanoma

| SMILES | TGI (NCI-H460 lung) | TGI (786-0 renal) | TGI (T-47D breast) | TGI (A498 renal) | TGI (DU-145 prostate) | TGI (NCI-H226 lung) | TGI (HT29 colon) | TGI (OVCAR-5 ovarian) | TGI (HOP-62 NSCLC) | TGI (LOX IMVI melanoma) |
| --- | --- | --- | --- | --- | --- | --- | --- | --- | --- | --- |
| COc1cc(C2c3cc(OC)c(OC)c(O)c3C(=O)C3CCC(=O)N32)cc(OC)c1OC (configuration not stated) | > 100 µM | > 100 µM | > 100 µM | > 100 µM | > 100 µM | > 100 µM | > 100 µM | > 100 µM | > 100 µM | > 100 µM |
| CC(=O)OCC1OC(n2c(N)c(C#N)c(-c3cccc(Cl)c3)c(C#N)c2=S)C(OC(C)=O)C(OC(C)=O)C1OC(C)=O (configuration not stated) | > 100 µM | 60.5 µM | 59 µM | 45.5 µM | 82 µM |  | 84.5 µM | > 100 µM | > 100 µM | 30.1 µM |
| CC(=O)c1ccc2c3c1O[C@H]1c4[nH]c5ccccc5c4C[C@@]4(O)[C@@H](C2)N(CC2CC2)CC[C@]314 | 17.7 µM | 28.3 µM | 44 µM | 16.1 µM | 39.5 µM | 42.5 µM | 20 µM | 28.1 µM | 36.5 µM | 33 µM |
| Cc1ccc(N=C2SC(=NN(C)C)SC2=Nc2ccc(C)cc2)cc1 | > 100 µM | > 100 µM | > 100 µM | > 100 µM | > 100 µM | > 100 µM | > 100 µM | > 100 µM | > 100 µM | > 100 µM |
| O=C(CSCC(=O)N/N=C\c1ccccc1F)N/N=C\c1ccccc1F | > 100 µM | > 100 µM | > 100 µM | > 100 µM | > 100 µM | > 100 µM | > 100 µM |  |  | > 100 µM |
| COc1ccc(N2N=NN(C(C)C)/C2=C(/Cl)c2nnnn2-c2ccc(OC)cc2)cc1 | 36.6 µM | 7.06 µM | 15.3 µM | 30.5 µM | 22.7 µM | 42.2 µM | 24.4 µM | 26.9 µM | 37.1 µM | 6.82 µM |
| CC(=O)OCC1OC(SC2=NC(=O)/C(=C/c3ccccc3)S2)C(OC(C)=O)C(OC(C)=O)C1OC(C)=O (configuration not stated) | > 100 µM | 30.8 µM | > 100 µM | 81.2 µM | > 100 µM | 95 µM | > 100 µM | > 100 µM | > 100 µM | 42.9 µM |
| CN(/N=C/c1ccc(Cl)cc1)C1=NCCCCN1 | > 100 µM | > 100 µM | > 100 µM | > 100 µM | > 100 µM | > 100 µM | > 100 µM | > 100 µM | > 100 µM | > 100 µM |
| COc1ccc(N2C(=O)C3c4[nH]c5ccccc5c4C4c5ccccc5CC4C3C2=O)cc1 (configuration not stated) | > 100 µM | > 100 µM | > 100 µM | > 100 µM | > 100 µM | > 100 µM | > 100 µM | > 100 µM | > 100 µM | > 100 µM |
| N#Cc1c(N2CCCC2)nsc1Nc1ccc(F)cc1 | > 100 µM | > 100 µM | > 100 µM | > 100 µM | > 100 µM | > 100 µM | > 100 µM | > 100 µM | > 100 µM | > 100 µM |
